Test results from publication PMC10620963, “Two-carbon tethered artemisinin–isatin hybrids: design, synthesis, anti-breast cancer potential, and in silico study” (Frontiers in Molecular Biosciences, 2023).

How the values were obtained:
[1] = tested on: MCF-7 breast cancer cell line; assay: MTT antiproliferative assay, MCF-7; format: cell-based, human; settings: for IC50: Homo sapiens, MCF7, MTT, 24 h treatment, mean ± S.D., n = 3
Experimental: (§1) The antiproliferative activity and cytotoxicity of ART–isatin hybrids 4a–k against MCF-7 (CL-0149, purchased from Procell), MDA-MB-231 (CL-0150A, purchased from Procell), and MDA-MB-231/ADR (AC337895, purchased from CASMART) breast cancer cell lines, as well as MCF-10A (CL-0525, purchased from Procell), were assessed by the 3-(4,5-dimethylthiazol-2-yl)-2,5-diphenyltetrazolium bromide (MTT) assay. ART, DHA, and Adriamycin (ADR) were used as positive controls. The selectivity index (SI: IC50(MCF-10A)/IC50(MCF-7)) and resistance index (RI: IC50(MDA-MB-231/ADR)/IC50(MDA-MB-231)) are presented in Table 3.
(§2) MCF-7, MDA-MB-231 and MDA-MB-231/ADR breast cancer cells (2×10^3) were plated in each well of a 96-well plate and were allowed to adhere and spread for 24 h. Cells were treated with a range of different concentrations of ART-isatin hybrids 4a-k (1, 5, 10, 20, 50, 100 µM) and reference drugs artemisinin, dihydroartemisinin, and adriamycin (1, 5, 10, 20, 50, 100 µM) and were cultured for 24 h at 37 °C. 3-(4,5-dimethyl-2-thiazolyl)-2,5-diphenyltetrazolium bromide (MTT) solution (10 µL) was added to each well, and the cultures were incubated for an additional 4 h. A further 100 µL of […] was added and incubation continued overnight. The absorbance was read at 540 nm in EnSpire, multimode reader and IC50 concentration was calculated and indicated as means SD of three in-dependent experiments. The percentage relative cell viability was determined according to the following formula: Percentage cell viability = A at 570 nm of treated samples/A at 570 nm of untreated samples × 100.
(§3) The statistical analysis was performed using Excel © and IC50 values were estimated using GraphpadPrism5 software (Hearne Scientific Software). The experiments were performed in duplicate and the statistical significance was calculated using the student’s t-test. A p-value of less than 0.05 was used to estimate the significance of the observations. A Z-factor was calculated for each 96-well plate and assays having Z-factor above 0.05 were included in the statistical analysis.

[2] = tested on: MDA-MB-231 breast cancer cell line; assay: MTT antiproliferative assay, MDA-MB-231; format: cell-based; settings: Homo sapiens, 24 h treatment, mean ± S.D., n = 3
Experimental: as §1, §2, §3

[3] = tested on: MDA-MB-231/ADR (Adriamycin-resistant MDA-MB-231 cell line); assay: MTT antiproliferative assay, MDA-MB-231/ADR; format: cell-based; settings: Homo sapiens, 24 h treatment, mean ± S.D., n = 3
Experimental: as §1, §2, §3

[4] = MTT cytotoxicity assay, MCF-10A; format: cell-based; settings: human, MCF-10A normal breast cells, 72 h exposure
Experimental: as §1
The cytotoxicity (CC50) of ART-isatin hybrids 4a-k and reference drugs artemisinin, dihydroartemisinin, and adriamycin were examined by the MTT assay in MCF-10A cells. The compounds were dissolved in DMSO with different concentrations. The MCF-10A cells were maintained in culture medium at 37 °C under 5% CO2 atmosphere. Cells were seeded in 96-well plates (1×10^4 cell per well) and allowed to recover for 24 h. After 72 h of exposure, cells were harvested, and cell viability was assessed by MTT assay.
as §3

[5] = tested on: MCF-7, MDA-MB-231, and MDA-MB-231/ADR breast cancer cell lines; assay: MTT antiproliferative assay, span over the three breast cancer cell lines; format: cell-based; settings: Homo sapiens; span over MCF-7, MDA-MB-231, MDA-MB-231/ADR; read-out: IC50 range against the three tested breast cancer cell lines
Experimental: as §1
MCF-7, MDA-MB-231 and MDA-MB-231/ADR breast cancer cells (2×10^3) were plated in each well of a 96-well plate and were allowed to adhere and spread for 24 h. […] The absorbance was read at 540 nm in EnSpire, multimode reader and IC50 concentration was calculated and indicated as means SD of three in-dependent experiments. The percentage relative cell viability was determined according to the following formula: Percentage cell viability = A at 570 nm of treated samples/A at 570 nm of untreated samples × 100.
The statistical analysis was performed using Excel © and IC50 values were estimated using GraphpadPrism5 software (Hearne Scientific Software). The experiments were performed in duplicate and the statistical significance was calculated using the student’s t-test. […]

| Compound | SI, selectivity index, IC50(MCF-10A)/IC50(MCF-7) [1] | IC50 [1] | IC50 [2] | IC50 [3] | IC50 at 72 h [4] | IC50 [5] |
| --- | --- | --- | --- | --- | --- | --- |
| C[C@@H]1CC[C@H]2[C@@H](C)C(OCCN3C(=O)C(=O)c4ccccc43)O[C@@H]3O[C@@]4(C)CC[C@@H]1[C@]32OO4 (stereo partly drawn) [Hybrid 4a, 1-(2-(((3R,5aS,6R,8aS,9R,12R,12aR)-3,6,9-trimethyldecahydro-12H-3,12-epoxy[1,2]dioxepino[4,3-i]isochromen-10-yl)oxy)ethyl)indoline-2,3-dione] | >7.9 | 12.6 ± 2.1 µM | 3.83 ± 0.1 µM | 2.49 ± 0.1 µM | > 100 µM | 2.49 to 12.6 µM |
| COc1cccc2c1C(=O)c1c(O)c3c(c(O)c1C2=O)C[C@@](O)(C(=O)CO)C[C@@H]3O[C@H]1C[C@H](N)[C@H](O)[C@H](C)O1 [ADR, Adriamycin, reference compound] | 3.6 | 18.9 ± 1.2 µM | 4.46 ± 0.1 µM | > 100 µM | 68.8 µM |  |
| CCON=C1C(=O)N(CCOC2O[C@@H]3O[C@@]4(C)CC[C@H]5[C@H](C)CC[C@@H]([C@H]2C)[C@@]35OO4)c2ccc(OC)cc21 (stereo partly drawn) [Hybrid 4i, 3-(ethoxyimino)-5-methoxy-1-(2-(((3R,5aS,6R,8aS,9R,12R,12aR)-3,6,9-trimethyldecahydro-12H-3,12-epoxy[1,2]dioxepino[4,3-i]isochromen-10-yl)oxy)ethyl)indolin-2-one] | >1.4 | 70.8 ± 5.9 µM | 50.1 ± 4.2 µM | 52.2 ± 3.6 µM | > 100 µM |  |
| C[C@@H]1CC[C@H]2[C@@H](C)C(=O)O[C@@H]3O[C@@]4(C)CC[C@@H]1[C@]32OO4 [ART, artemisinin] | >1.1 | 87.6 ± 6.6 µM | 72.4 ± 5.3 µM | > 100 µM | > 100 µM |  |
| CON=C1C(=O)N(CCOC2O[C@@H]3O[C@@]4(C)CC[C@H]5[C@H](C)CC[C@@H]([C@H]2C)[C@@]35OO4)c2ccc(OC)cc21 (stereo partly drawn) [Hybrid 4f, 5-methoxy-3-(methoxyimino)-1-(2-(((3R,5aS,6R,8aS,9R,12R,12aR)-3,6,9-trimethyldecahydro-12H-3,12-epoxy[1,2]dioxepino[4,3-i]isochromen-10-yl)oxy)ethyl)indolin-2-one] | >2.6 | 37.9 ± 3.3 µM | 20.4 ± 1.7 µM | 33.8 ± 3 µM | > 100 µM |  |
| CO/N=C1/C(=O)N(CCOC2O[C@@H]3O[C@@]4(C)CC[C@H]5[C@H](C)CC[C@@H]([C@H]2C)[C@@]35OO4)c2ccc(F)cc21 (stereo partly drawn) [Hybrid 4e, (E)-5-fluoro-3-(methoxyimino)-1-(2-(((3R,5aS,6R,8aS,9R,12R,12aR)-3,6,9-trimethyldecahydro-12H-3,12-epoxy[1,2]dioxepino[4,3-i]isochromen-10-yl)oxy)ethyl)indolin-2-one] | >1.3 | 73.3 ± 5.6 µM | 49.6 ± 3.8 µM | 64.7 ± 4.9 µM | > 100 µM |  |
| COc1ccc2c(c1)C(=O)C(=O)N2CCOC1O[C@@H]2O[C@@]3(C)CC[C@H]4[C@H](C)CC[C@@H]([C@H]1C)[C@@]24OO3 (stereo partly drawn) [Hybrid 4c, 5-methoxy-1-(2-(((3R,5aS,6R,8aS,9R,12R,12aR)-3,6,9-trimethyldecahydro-12H-3,12-epoxy[1,2]dioxepino[4,3-i]isochromen-10-yl)oxy)ethyl)indoline-2,3-dione] | >2.9 | 33.8 ± 3.2 µM | 27 ± 2.2 µM | 25.1 ± 1.9 µM | > 100 µM |  |
| CON=C1C(=O)N(CCOC2O[C@@H]3O[C@@]4(C)CC[C@H]5[C@H](C)CC[C@@H]([C@H]2C)[C@@]35OO4)c2ccccc21 (stereo partly drawn) [Hybrid 4d, 3-(methoxyimino)-1-(2-(((3R,5aS,6R,8aS,9R,12R,12aR)-3,6,9-trimethyldecahydro-12H-3,12-epoxy[1,2]dioxepino[4,3-i]isochromen-10-yl)oxy)ethyl)indolin-2-one] | >3.5 | 28.5 ± 2.3 µM | 16.2 ± 1.8 µM | 19.7 ± 1.2 µM | > 100 µM |  |
| C[C@@H]1CC[C@H]2[C@@H](C)C(OCCN3C(=O)C(=NOCc4ccccc4)c4cc(F)ccc43)O[C@@H]3O[C@@]4(C)CC[C@@H]1[C@]32OO4 (stereo partly drawn) [Hybrid 4j, 3-((benzyloxy)imino)-5-fluoro-1-(2-(((3R,5aS,6R,8aS,9R,12R,12aR)-3,6,9-trimethyldecahydro-12H-3,12-epoxy[1,2]dioxepino[4,3-i]isochromen-10-yl)oxy)ethyl)indolin-2-one] |  | > 100 µM | > 100 µM | > 100 µM | > 100 µM |  |
| C[C@H]1[C@@H](O)O[C@@H]2O[C@@]3(C)CC[C@H]4[C@H](C)CC[C@@H]1[C@@]24OO3 [DHA, dihydroartemisinin, reference compound] | >1.3 | 73.2 ± 5.9 µM | 69.6 ± 4.7 µM | 82.8 ± 6.8 µM | > 100 µM | 69.6 to 89.8 µM |
| C[C@@H]1CC[C@H]2[C@@H](C)C(OCCN3C(=O)C(=O)c4cc(F)ccc43)O[C@@H]3O[C@@]4(C)CC[C@@H]1[C@]32OO4 (stereo partly drawn) [Hybrid 4b, 5-fluoro-1-(2-(((3R,5aS,6R,8aS,9R,12R,12aR)-3,6,9-trimethyldecahydro-12H-3,12-epoxy[1,2]dioxepino[4,3-i]isochromen-10-yl)oxy)ethyl)indoline-2,3-dione] | >3.7 | 26.7 ± 2.4 µM | 18.6 ± 1.5 µM | 21.4 ± 3.1 µM | > 100 µM |  |
| COc1ccc2c(c1)/C(=N\OCc1ccccc1)C(=O)N2CCOC1O[C@@H]2O[C@@]3(C)CC[C@H]4[C@H](C)CC[C@@H]([C@H]1C)[C@@]24OO3 (stereo partly drawn) [Hybrid 4k, (E)-3-((benzyloxy)imino)-5-methoxy-1-(2-(((3R,5aS,6R,8aS,9R,12R,12aR)-3,6,9-trimethyldecahydro-12H-3,12-epoxy[1,2]dioxepino[4,3-i]isochromen-10-yl)oxy)ethyl)indolin-2-one] |  | > 100 µM | > 100 µM | > 100 µM | > 100 µM |  |
| CCON=C1C(=O)N(CCOC2O[C@@H]3O[C@@]4(C)CC[C@H]5[C@H](C)CC[C@@H]([C@H]2C)[C@@]35OO4)c2ccc(F)cc21 (stereo partly drawn) [Hybrid 4h, 3-(ethoxyimino)-5-fluoro-1-(2-(((3R,5aS,6R,8aS,9R,12R,12aR)-3,6,9-trimethyldecahydro-12H-3,12-epoxy[1,2]dioxepino[4,3-i]isochromen-10-yl)oxy)ethyl)indolin-2-one] | >1.4 | 68.3 ± 5.2 µM | 46.5 ± 3.9 µM | 59.9 ± 4.4 µM | > 100 µM |  |
| CCON=C1C(=O)N(CCOC2O[C@@H]3O[C@@]4(C)CC[C@H]5[C@H](C)CC[C@@H]([C@H]2C)[C@@]35OO4)c2ccccc21 (stereo partly drawn) [Hybrid 4g, 3-(ethoxyimino)-1-(2-(((3R,5aS,6R,8aS,9R,12R,12aR)-3,6,9-trimethyldecahydro-12H-3,12-epoxy[1,2]dioxepino[4,3-i]isochromen-10-yl)oxy)ethyl)indolin-2-one] | >2.0 | 48.2 ± 3.7 µM | 37.6 ± 2.4 µM | 28.4 ± 2.1 µM | > 100 µM |  |
